Measurements: patent US20170290783A1, “Rabbit Maternal Pheromones to Enhance the Weight of Weaning Piglets” (Animal Biotech, LLC, priority 2016, published 2017)

How the values were obtained:
[1] = test system: weaning piglets; assay: Post-weaning piglet performance (body weight, ADG, ADFI, G:F) after a single application of rabbit maternal pheromone to the nursery feeder; type: in vivo, pig
Source text: Piglets (n=120) were randomly selected from nursing sows. A total of 120 piglets, 60 males and 60 females, were weaned at approximately 3 weeks of age and transported for four hours before entering the nursery site. Piglets were housed in groups of three, single-sex (either barrows or gilts), and had ad libitum access to feed and water. A total of 40 pens (the experimental unit) were available; 10 each of male and female experiencing control or pheromone therapy. Space allowance was in excess of industry standards (0.6 m^2 per piglet). Body weight and feed intake were each measured once per week from commencement of weaning until 35 days after weaning.
Control and pheromone-treated piglets were housed in separate rooms, with no airflow between the rooms to ensure no cross contamination between air spaces. To expose piglets to the rabbit maternal pheromone, test piglet feeders received 25 mL of the trans-2-methyl-2-butenal solution (1 μg/mL in isopropyl alcohol) while the control piglet feeders received 25 mL of isopropyl alcohol only. Feeders were sprayed immediately before the arrival of piglets to the nursery site.
Half of the pigs and pens in each group were transported and half were moved directly from the farrowing crates to the adjacent nursery building. The experimental design was a completely random design with a two by two factorial arrangement of transport (or not) and trans-2-methyl-2-butenal or placebo control.
Average daily gain (ADG, kg. per day) was calculated from the body weights both weekly and over the entire period. Average daily feed intake (ADFI, kg. per pig per day) was calculated based on weekly feed consumption. Gain to Feed (G:F) was calculated each week and over the 28-day post-weaning period.
Data were analyzed using SAS software (SAS, 2012). PROC Univariate was used to establish that the overall ADG, ADFI and G:F ratio data were normally distributed. The general linear models procedure was used with pen as the experimental unit. There were 40 experimental units (pens) in total. The original model contained the factorial effects of (A) trans-2-methyl-2-butenal applied during transport or not, (B) trans-2-methyl-2-butenal applied to the nursery feeder or not, and (3) pig sex (barrow vs. gilt) and all possible interactions. […] A final simplified analysis was performed with only the effects of trans-2-methyl-2-butenal applied in the nursery or not with 20 pens per treatment.

[2] = test system: re-grouped, stressed pigs; details: cited from earlier work

Compound	Piglet body weight vs control ([1]; 14 days after weaning)	G:F (gain to feed) ([1]; P>0.10 vs control)	Piglet body weight vs control ([1]; at weaning and 7 days later, 25 mL of 1 μg/mL in isopropyl alcohol sprayed on feeder)	Body weight at weaning ([1]; at weaning, pigs to experience treatment, control 6.5±0.06 kg, P>0.10) [kg]	Overall ADG (average daily gain) ([1]; both the 4 and 5 week period after weaning, P<0.05 vs control)	Piglet body weight vs control ([1]; days 21, 28 and 35 after weaning, P<0.05)	ADFI (average daily feed intake) ([1]; during 4 weeks after weaning, P<0.05 vs control)	Stimulatory effect on feed intake ([1]; first week after weaning)	Improvement in body weight vs control ([1]; five weeks after weaning, P=0.01) [%]	Body weight five weeks after weaning ([1]; five weeks after weaning, control 16.5±0.31 kg, P=0.01) [kg]	ADFI and ADG ([1]; single application to the feeder in the post-weaning environment)	Overall performance measures, effect of application during transport ([1]; transport application, P>0.10)	Post-weaning ADG ([1]; weeks 3, 5 and overall, P<0.05)	ADFI ([1]; weeks 3 and 4 after weaning and overall 5-week growth period, P<0.05)	Stimulatory effect on feed intake ([1]; weeks two to five after weaning)	Pig aggressive behaviors ([2]; pig, in vivo)	Weight gain ([2]; re-grouped, stressed pigs)
C/C=C(\C)C=O [trans-2-methyl-2-butenal]	tended (P=0.06) to be heavier	not influenced	statistically similar	6.6 ± 0.025	increase	significantly heavier	increase	very small (and not significant)	8.5	17.9 ± 0.31	stimulate	not significant	increased	higher	increases in magnitude	–	–
C[C@]12CCC(=O)C[C@@H]1CC[C@@H]1[C@@H]2CC[C@]2(C)C=CC[C@@H]12 [Androstenone]	–	–	–	–	–	–	–	–	–	–	–	–	–	–	–	reduced	temporarily improve
